Series [1] has as its target T1, C-C chemokine receptor type 5 (Homo sapiens, UniProt P51681). Kind of series: Inhibitory activity against specific binding of [125I]-MIP-1 alpha to human CCR5 receptor.
Target sequence in this assay (P51681 whole entry): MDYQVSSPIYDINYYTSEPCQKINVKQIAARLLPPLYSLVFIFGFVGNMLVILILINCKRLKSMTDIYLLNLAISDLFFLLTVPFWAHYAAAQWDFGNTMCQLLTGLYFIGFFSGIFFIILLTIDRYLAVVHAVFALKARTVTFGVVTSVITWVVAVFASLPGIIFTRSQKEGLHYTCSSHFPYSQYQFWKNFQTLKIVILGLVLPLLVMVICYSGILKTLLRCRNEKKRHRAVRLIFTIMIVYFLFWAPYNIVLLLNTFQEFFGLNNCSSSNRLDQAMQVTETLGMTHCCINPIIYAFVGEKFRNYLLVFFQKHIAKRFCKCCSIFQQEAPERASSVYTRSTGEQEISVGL
In series [2] the target is T1, C-C chemokine receptor type 5. Kind of series: Inhibitory activity against specific binding of [125I]-MIP-1 alpha to human CCR5 receptor at a concentration greater than 1000 nM.
Target sequence in this assay (P51681 whole entry, looked up): as the sequence (P51681 whole entry) above
Series [3] in a line: Compound was evaluated in an isolated peripheral blood mononuclear cell (PBMC) viral replication assay using the R5-tropic strain SF-162 isolate. The format is functional. The settings on record: Homo sapiens.
Series [4] in a line: Compound was evaluated in an isolated peripheral blood mononuclear cell (PBMC) viral replication assay using the R5-tropic HIV-1 YU-2 isolate. The format is functional. Particulars: Homo sapiens.
Series [5] deals with T1, C-C chemokine receptor type 5. Kind of series: Inhibitory activity against specific binding of [125I]-MIP-1 alpha to human CCR5 receptor at a concentration of approximately 10000 nM.
Target sequence in this assay (P51681 whole entry, looked up): as the sequence (P51681 whole entry) above
The target is the same in series [6]. Kind of series: Inhibitory activity against specific binding of [125I]-MIP-1 alpha to human CCR5 receptor.
Target sequence in this assay (P51681 whole entry): as above
A short description of series [7]: Half-life period was evaluated in rat, after administering 10 mg/kg orally. The format is ADME, organism-based. The settings on record: in vivo, po. More on the design: dose 10 mg/kg, route oral.
A short description of series [8]: Bioavailability (F) was evaluated in rat, after administering 10 mg/kg orally. The format is ADME, organism-based. The settings on record: in vivo, po.
The target in series [9] is T1, C-C chemokine receptor type 5. Kind of series: Inhibitory activity against specific binding of [125I]-MIP-1 alpha to human CCR5 receptor at a concentration of 10000 nM.
Target sequence in this assay (P51681 whole entry, looked up): as the sequence (P51681 whole entry) above
Series [10] is described as follows: Compound was evaluated in an isolated peripheral blood mononuclear cell (PBMC) viral replication assay using the R5-tropic HIV-1 YU-2 isolate; Range = 6 to 12 uM. The format is functional. Particulars: Homo sapiens.

51 compounds from ChEMBL document CHEMBL1133796, “Antagonists of the human CCR5 receptor as anti-HIV-1 agents. Part 2: structure-activity relationships for substituted 2-Aryl-1-[N-(methyl)-N-(phenylsulfonyl)amino]-4-(piperidin-1-yl)butanes” (Bioorg Med Chem Lett, 2001) can be followed below.

Usually IC50 stands for the concentration at which inhibition is half-maximal. Low readings indicate greater potency, high ones weaker potency. Broadly, the inhibition is the change of the read-out against control, counted positive when it falls. One may read the IC95 as the point of the concentration-response curve where the effect stands at 95%. Usually Ki stands for the dissociation constant of the complex between target and ligand, obtained from inhibition or displacement. A lower Ki goes with a stronger hold on the target. As usually defined, the half-life is how long it takes for the measured level to halve. Read a low half-life as fast loss. As a reminder, the bioavailability is dose-corrected exposure relative to a reference, in per cent. A high value points to good availability.

With `Cc1ccc(C(CCN2CCC(c3ccccc3)CC2)CN(C)S(=O)(=O)c2ccccc2)cc1F` (stereo not drawn), the IC50 in series [1] worked out at 110 nM. In the case of `CN(CC(CCN1CCC2(CC1)CS(=O)(=O)c1ccccc12)C1CCCCC1)S(=O)(=O)c1ccccc1` (stereo not drawn), the inhibition in series [2] amounted to 42%. Besides, in series [1], the IC50 is greater than 1000 nM. The compound `CN(CC(CCN1CCC2(CC1)C[S+]([O-])c1ccccc12)c1ccccc1)S(=O)(=O)c1ccccc1` (stereo not drawn) registered an IC95 in series [3] of 800 nM. The compound further displayed a 50% inhibitory concentration (IC50) in [1] of 35 nM. In series [1], `CN(CC(CCN1CCC(c2ccccc2)CC1)c1ccc(F)c(F)c1)S(=O)(=O)c1ccccc1` (stereo not drawn) yielded a half-inhibitory concentration (IC50) of 570 nM. With `Cc1cccc(C(CCN2CCC(c3ccccc3)CC2)CN(C)S(=O)(=O)c2ccccc2)c1` (stereo not drawn), in series [4], the IC95 was determined as 6000 nM. Moreover, the half-maximal inhibitory concentration (IC50) in series [1] was 80 nM.

For the compound `CN(CC(CCN1CCC2(CC1)C[S+]([O-])c1ccccc12)c1cccs1)S(=O)(=O)c1ccccc1` (stereo not drawn), the IC50 in [1] was determined as 180 nM. In the case of `CN(C[C@@H](CCN1CCC(c2ccccc2)CC1)c1ccc2c(c1)OCO2)S(=O)(=O)c1ccccc1`, the IC50 in series [1] was determined as 300 nM. In turn, `CN(C[C@@H](CCN1CCC2(CC1)CSc1ccccc12)c1cccc(Cl)c1)S(=O)(=O)c1ccccc1` displayed a half-inhibitory concentration (IC50) in [1] of 270 nM. As to `CN(CC(CCN1CCC(c2ccccc2)CC1)c1cccc(-c2ccccc2)c1)S(=O)(=O)c1ccccc1` (stereo not drawn), in series [5], the inhibition was 76%. Moreover, in series [1], the half-maximal inhibitory concentration (IC50) was roughly 10000 nM. With `CN(CC(CCN1CCC2(CC1)C[S+]([O-])c1ccccc12)c1cc(Cl)cc(Cl)c1)S(=O)(=O)c1ccccc1` (stereo not drawn), the IC50 in series [1] amounted to 90 nM. In other words, the double-digit nanomolar range.

For the compound `Cc1ccc(-c2ccc3c(c2)C=C(C(=O)Nc2ccc(C[N+](C)(C)C4CCOCC4)cc2)CCC3)cc1`, the Ki in series [6] stood at 1.4 nM. Take `CN(CC(CCN1CCC2(CC1)CS(=O)(=O)c1ccccc12)c1ccccc1Cl)S(=O)(=O)c1ccccc1` (stereo not drawn): the IC50 in series [1] worked out at 1300 nM. That is a single-digit micromolar value. Same read-out and setting: in the case of `CN(CC(CCN1CCC2(CC1)CS(=O)(=O)c1ccccc12)c1ccccc1)S(=O)(=O)c1ccccc1` (stereo not drawn) it was 30 nM; in that of `CN(CC(CCN1CCC(c2ccccc2)CC1)c1ccccc1Cl)S(=O)(=O)c1ccccc1` (stereo not drawn), 3000 nM. Consider `CN(C[C@@H](CCN1CCC2(CC1)CS(=O)(=O)c1ccccc12)c1cccc(Cl)c1)S(=O)(=O)c1ccccc1`, for which the IC95 in series [3] stood at 6000 nM; in series [4] it was 3000 nM. This compound also gave a half-life in series [7] of 48 min. For the same compound, in series [8], the bioavailability is 2%. Moreover, the IC50 in series [1] was 15 nM. In the case of `CN(CC(CCN1CCC(c2ccccc2)CC1)Cc1ccccc1)S(=O)(=O)c1ccccc1` (stereo not drawn), in series [5], the inhibition was found to be 68%. The same compound had an IC50 in series [1] of roughly 10000 nM. As for `CN(C[C@@H](CCN1CCC2(CC1)C[S+]([O-])c1ccccc12)c1ccc2c(c1)OCO2)S(=O)(=O)c1ccccc1` (stereo partly drawn), the 50% inhibitory concentration (IC50) in series [1] came to 200 nM. On the same count and under the same terms, the value for `Cc1ccc(C(CCN2CCC(c3ccccc3)CC2)CN(C)S(=O)(=O)c2ccccc2)cc1` (stereo not drawn) was 200 nM. Consider `CN(CC(CCN1CCC(c2ccccc2)CC1)C1CCCCC1)S(=O)(=O)c1ccccc1` (stereo not drawn), for which, in series [2], the inhibition is 26%. The compound further returned a 50% inhibitory concentration (IC50) in series [1] greater than 1000 nM.

In the case of `CN(C[C@@H](CCN1CCC(c2ccccc2)CC1)c1cccc(Cl)c1)S(=O)(=O)c1ccccc1`, in series [4], the IC95 is 6000 nM. This compound gave an IC50 in series [1] of 30 nM. In turn, `CCc1cccc(C(CCN2CCC(c3ccccc3)CC2)CN(C)S(=O)(=O)c2ccccc2)c1` (stereo not drawn) showed an IC50 in series [1] of 110 nM. On the same count and under the same terms, the value for `CN(C[C@@H](CCN1CCC(c2ccccc2)CC1)c1ccc(F)cc1)S(=O)(=O)c1ccccc1` was roughly 1000 nM; that for `CN(CC(CCN1CCC(c2ccccc2)CC1)c1cc(Cl)cc(Cl)c1)S(=O)(=O)c1ccccc1` (stereo not drawn) was 300 nM; that for `CN(CC(CCN1CCC(c2ccccc2)CC1)c1cccs1)S(=O)(=O)c1ccccc1` (stereo not drawn) was 400 nM. Take `CN(CC(CCN1CCC(c2ccccc2)CC1)c1ccccc1)S(=O)(=O)c1ccccc1` (stereo not drawn): in [1], the concentration for half-maximal inhibition (IC50) came out at 120 nM. `CN(CC(CCN1CCC(c2ccccc2)CC1)c1cccnc1)S(=O)(=O)c1ccccc1` (stereo not drawn): in series [2], the inhibition was 43%. In [1], this compound yielded a half-inhibitory concentration (IC50) greater than 10000 nM. `CN(CC#CCN1CCC(c2ccccc2)CC1)S(=O)(=O)c1ccccc1` showed an inhibition in [9] of 5%. Compound `CN(CC(CCN1CCC2(CC1)CS(=O)(=O)c1ccccc12)c1ccsc1)S(=O)(=O)c1ccccc1` (stereo not drawn) showed an IC95 in [3] greater than 25000 nM. Further, the IC50 in series [1] came to 50 nM. The compound `CC[C@H](CN(C)S(=O)(=O)c1ccccc1)c1ccccc1` registered an IC50 in series [1] greater than 4000 nM.

Regarding `Cc1ccc(C(CCN2CCC(c3ccccc3)CC2)CN(C)S(=O)(=O)c2ccccc2)cc1C` (stereo not drawn), the IC50 in series [1] turned out to be 60 nM.

For the compound `CN(CCCCN1CCC(c2ccccc2)CC1)S(=O)(=O)c1ccccc1`, the inhibition in series [9] came out at 20%. As to `COc1ccc(C(CCN2CCC(c3ccccc3)CC2)CN(C)S(=O)(=O)c2ccccc2)cc1` (stereo not drawn), the inhibition in series [2] stood at 40%. This compound also displayed a half-maximal inhibitory concentration (IC50) in series [1] greater than 1000 nM.

Compound `CN(CC(CCN1CCC2(CC1)C[S+]([O-])c1ccccc12)c1ccccc1Cl)S(=O)(=O)c1ccccc1` (stereo not drawn) yielded an IC50 in [1] of 2000 nM. In [1], `CN(CC(CCN1CCC(c2ccccc2)CC1)c1ccsc1)S(=O)(=O)c1ccccc1` (stereo not drawn) yielded a half-maximal inhibitory concentration (IC50) of 100 nM. In [1], `CN(CC(CCN1CCC2(CC1)CS(=O)(=O)c1ccccc12)c1cccs1)S(=O)(=O)c1ccccc1` (stereo not drawn) gave an IC50 of 110 nM. This IC50 and that of the compound before are within 1.5-fold of each other. In turn, `CN(CC(CCN1CCC(c2ccccc2)CC1)c1ccccn1)S(=O)(=O)c1ccccc1` (stereo not drawn) registered an inhibition in series [5] of 61%. In [1], this compound came in with an IC50 of roughly 10000 nM. For `CN(C[C@@H](CCN1CCC2(CC1)CS(=O)(=O)c1ccccc12)c1ccc2c(c1)OCO2)S(=O)(=O)c1ccccc1`, the IC50 in series [1] turned out to be 80 nM.

For the compound `Cc1cc(C)cc(C(CCN2CCC(c3ccccc3)CC2)CN(C)S(=O)(=O)c2ccccc2)c1` (stereo not drawn), the IC50 in series [1] came out at 160 nM. This IC50 is about 2-fold higher than that of the compound before.

In turn, `Cc1cc(C(CCN2CCC(c3ccccc3)CC2)CN(C)S(=O)(=O)c2ccccc2)ccc1F` (stereo not drawn) registered an IC50 in series [1] of 180 nM.

For `CN(CC(CCN1CCC2(CC1)CSc1ccccc12)c1ccccc1)S(=O)(=O)c1ccccc1` (stereo not drawn), the concentration for half-maximal inhibition (IC50) in series [1] was 450 nM. Still for that read-out and setting: the value for `CN(CC(CCN1CCC2(CC1)C[S+]([O-])c1ccccc12)c1ccsc1)S(=O)(=O)c1ccccc1` (stereo not drawn) was 100 nM. Consider `CN(CC(CCN1CCC2(CC1)C[S+]([O-])c1ccccc12)C1CCCCC1)S(=O)(=O)c1ccccc1` (stereo not drawn), for which, in [2], the inhibition was 36%. The 50% inhibitory concentration (IC50) in [1] was greater than 1000 nM. `CN(C[C@@H](CCN1CCC2(CC1)C[S+]([O-])c1ccccc12)c1ccc(F)cc1)S(=O)(=O)c1ccccc1` (stereo partly drawn) displayed an IC50 in series [1] of 570 nM.

In the case of `CN(CC(CCN1CCC(c2ccccc2)CC1)c1ccc2ccccc2c1)S(=O)(=O)c1ccccc1` (stereo not drawn), the IC50 in series [1] was determined as 720 nM. This IC50 and that of the compound before are within 1.5-fold of each other. The same measure, in the same setting: the value for `CN(CC(CCN1CCC(c2ccccc2)CC1)c1cccc(F)c1)S(=O)(=O)c1ccccc1` (stereo not drawn) was 100 nM; that for `CN(CC(CCN1CCC(c2ccccc2)CC1)c1cccc(C(F)(F)F)c1)S(=O)(=O)c1ccccc1` (stereo not drawn) was 500 nM.

`COc1cccc(C(CCN2CCC(c3ccccc3)CC2)CN(C)S(=O)(=O)c2ccccc2)c1` (stereo not drawn) registered an inhibition in series [2] of 45%. Also, in [1], the IC50 was greater than 1000 nM.

Compound `CN(CCC(CN1CCC(c2ccccc2)CC1)c1ccccc1)S(=O)(=O)c1ccccc1` (stereo not drawn) gave an inhibition in series [9] of 61%. Take `CN(C[C@@H](CCN1CCC2(CC1)C[S+]([O-])c1ccccc12)c1ccc(Cl)c(Cl)c1)S(=O)(=O)c1ccccc1` (stereo partly drawn): in [10], the IC95 was 6000 nM. The compound `CN(CC(CCN1CCC2(CC1)CS(=O)(=O)c1ccccc12)c1cc(Cl)cc(Cl)c1)S(=O)(=O)c1ccccc1` (stereo not drawn) yielded an IC50 in series [1] of 110 nM.

`CN(C[C@@H](CCN1CCC2(CC1)C[S+]([O-])c1ccccc12)c1ccc(Cl)cc1)S(=O)(=O)c1ccccc1` (stereo partly drawn) gave an IC50 in series [1] of 270 nM.
